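Five compound concentrations were applied to cells in 96-well plates for 48 hours; endpoints were derived by simple linear interpolation of the resulting dose-response curve. Definition used: TGI = concentration required for complete inhibition of growth.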

Test in all cases: NCI-60 cell line screen, 48 h
Assay [1] deals with CCRF-CEM leukemia.
For assay [2], the system named is MDA-MB-231 breast.
The subject of assay [3] is NCI-H226 lung.
The test system of assay [4] is RPMI-8226 leukemia.
Assay [5] relates to SK-OV-3 ovarian.
The subject of assay [6] is SNB-75 CNS.
The subject of assay [7] is SW-620 colon.
The test system of assay [8] is A498 renal.
Assay [9] concerns OVCAR-3 ovarian.
The subject of assay [10] is MDA-N.

Turning to `N#CCN1CCCCCc2ccccc21`, the TGI in assay [1], in assay [2], in assay [3], in assay [4], in [5] and in [6] was more than 100 µM in each case. In [7], this compound showed a TGI of more than 100 µM.
On to `C\C=C/C=C/C=C/C(=O)O`, for which the TGI in assay [8], in assay [1], in [3], in assay [9], in assay [4] and in [5] was more than 100 µM in each case. Moreover, the TGI in assay [6] and in assay [7] was more than 100 µM throughout.
As for `CN1c2ccccc2C(=O)NC12CCN(Cc1ccccc1)CC2`, the TGI in [8], in assay [1], in assay [2], in assay [3], in [4] and in assay [5] was more than 100 µM in each case. For the same compound, the TGI in [6] and in assay [7] was more than 100 µM throughout.
Regarding `COC(=O)C1=C(O)C(C(=O)OC)[C@]2(O)[C@H](C(=O)OC)[C@H]1C[C@@H](c1cccc(OC)c1)[C@H]2C(=O)OC` (some centres undefined), the TGI in assay [8] was 55.9 µM; in assay [2] it was 78.3 µM; in [10] it was 64.4 µM; in [3], more than 100 µM; in assay [4] it was more than 100 µM; in [5] it was 66.6 µM. For the same compound, the TGI in [6] and in assay [7] was more than 100 µM in each case.
Consider `O=C(Nc1ccc(Cl)cc1)c1cccc([N+](=O)[O-])c1O`, for which the TGI in assay [8] is 7.32 µM; in [1], 11.7 µM; in [3], 7.95 µM; in [9], 9.09 µM; in assay [4], 7.2 µM; in assay [5], 13.7 µM. Also, the values for the TGI in [6] and in assay [7] were 26.1 µM and more than 100 µM, respectively.
Regarding `CC1=NC2(CCCCC2)N(Cl)C(=O)C1SC#N` (centres undefined), the TGI in assay [8] was more than 100 µM; in [1] it was 12.8 µM; in assay [2], 36.5 µM; in assay [10], 32.2 µM; in assay [3], 40.1 µM; in [9] it was 35.2 µM. Also, the figures for the TGI in assay [6] and in assay [7] were 44.5 µM and 62.6 µM, respectively.
As for `CC1(C)CC(=O)C2=C(C1)NC(SCC(=O)O)=C(C#N)C2c1ccc(Br)cc1` (centres undefined), the TGI in [8], in [1], in [2], in assay [10], in assay [3] and in [9] was more than 100 µM throughout. Moreover, the TGI in assay [5], in assay [6] and in assay [7] was more than 100 µM in each case.
As for `CCOC(=O)c1[nH]cnc1/N=N/N(C)N`, the TGI in [8], in [2], in assay [10], in assay [3], in assay [9] and in assay [4] was more than 100 µM each time. In addition, the TGI in [5], in assay [6] and in [7] was more than 100 µM each time.
Regarding `Cc1c(NC(=S)N/N=C\C(=N/NC(=S)Nc2c(C)n(C)n(-c3ccccc3)c2=O)c2ccccc2)c(=O)n(-c2ccccc2)n1C`, the TGI in assay [8], in assay [2], in assay [3], in assay [9], in assay [5] and in assay [6] was more than 100 µM in each case. Besides, the TGI in assay [7] was more than 100 µM.
In the case of `N#CN=C1c2ccccc2C(=NC#N)c2cc(CO)ccc21`, the TGI was 74.4 µM in [8]; more than 100 µM in assay [2]; more than 100 µM in assay [10]; more than 100 µM in assay [3]; more than 100 µM in assay [9]; 31 µM in [4]. Further, the TGI was 60.7 µM in [6] and more than 100 µM in assay [7].
As for `CC(=O)Nc1ccc(N2C(=O)CS(=O)(=O)C2c2cccc(Oc3ccccc3)c2)cc1` (centres undefined), the TGI is more than 100 µM in assay [1]; 36 µM in assay [2]; 32.5 µM in [10]; 35.8 µM in assay [3]; 38.2 µM in [9]; 83.1 µM in assay [5]. Besides, the TGI in assay [6] was determined as 55.2 µM; in assay [7], 80.5 µM.
Turning to `C=C(C)[C@@H]1CC[C@]2(CO)CC[C@]3(C)[C@H](CC[C@@H]4[C@@]5(C)CC[C@H](O)C(C)(C)[C@@H]5CC[C@]43C)[C@@H]12`, the TGI in [8] was 61.9 µM; in [1] it was more than 100 µM; in [2], more than 100 µM; in [10] it was more than 100 µM; in assay [3], more than 100 µM; in assay [9], 66.4 µM. The TGI worked out at 28.9 µM in assay [6] and 43.5 µM in assay [7].
With `Cc1ccc(C2(N3CCCC3)OC(C)(C)c3cccc4cccc2c34)cc1` (centres undefined), the TGI in assay [8] is 30 µM; in [1], more than 100 µM; in assay [10] it was 29.9 µM; in assay [3] it was 31.8 µM; in [9] it was 30.3 µM; in [4], 71.9 µM. Also, the values for the TGI in assay [5], in assay [6] and in assay [7] were 29.3 µM, 26.3 µM and 30.9 µM, respectively.
On to `CC(C)=NNc1cnnc2ccc([N+](=O)[O-])cc12`, for which the TGI in assay [1], in [2], in assay [10], in [3], in [4] and in assay [5] was more than 100 µM each time. The TGI in [6] and in [7] was more than 100 µM each time.
With `COC(=O)c1c(O)ccc2c1c1c(n2Cc2ccc(OC)cc2)C(=O)c2ccccc2C1=O`, the TGI in [8] worked out at 47.2 µM; in assay [1] it was 0.296 µM; in assay [10], 32.7 µM; in [3] it was 25.8 µM; in [9], 43.9 µM; in assay [4] it was 1.9 µM. Also, the TGI in assay [5] was determined as 48.1 µM; in assay [6], 85.8 µM; in [7], 45.6 µM.
For the compound `CCC(C)NC(=S)N/N=C(\C)c1ccccn1` (centres undefined), the TGI was more than 26 µM in [8]; more than 100 µM in assay [2]; more than 80 µM in assay [10]; 6.83 µM in [3]; 23.4 µM in assay [9]; more than 100 µM in assay [5]. For the same compound, the TGI in [7] is more than 100 µM.

The values above are taken from PubChem BioAssay (NCI).
